Measurements reported in paper PMC6409085, “Three odorant-binding proteins are involved in the behavioral response of Sogatella furcifera to rice plant volatiles” (PeerJ, 2019).
Several values for one entry are separate records, joined by “and”; a condition that tells them apart may be missing. Equal values may be shown once.

Tests used:
[1] = test system: S. furcifera adults; assay: Y-tube olfactometer behavioral trials; format: in vivo, Sogatella furcifera; conditions: odorant 50 µL/L vs hexane
In short: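 Single S. furcifera adults (2 days post-emergence, starved 0.5 h) chose between odorant (100 µL of 50 µL/L on filter paper) and hexane control in a glass Y-tube, charcoal-filtered humidified air 300 mL/min per arm, 25 ± 1 °C, 50% RH. Choice scored if insect passed half an arm and stayed >1 min within 10 min; 45 insects per compound, chi-squared test.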

[2] = target: SfurOBP2 (Sogatella furcifera, UniProt V5T759); assay: biochemical; format: binding
Sequence of SfurOBP2 (V5T759 entry or part of it): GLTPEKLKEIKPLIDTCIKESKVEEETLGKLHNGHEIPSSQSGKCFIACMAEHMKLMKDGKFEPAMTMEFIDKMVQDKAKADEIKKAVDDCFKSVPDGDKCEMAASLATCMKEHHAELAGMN
In short: (§1)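 1-NPN displacement assay with odorant competitor at 2–20 µM; protein and probe both 2.0 µM at pH 7.4. Ki is calculated from IC50 using the protein/1-NPN dissociation constant.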

[3] = target: SfurOBP11 (Sogatella furcifera, UniProt V5T6E3); assay: biochemical; format: binding
Sequence of SfurOBP11 (V5T6E3 entry or part of it): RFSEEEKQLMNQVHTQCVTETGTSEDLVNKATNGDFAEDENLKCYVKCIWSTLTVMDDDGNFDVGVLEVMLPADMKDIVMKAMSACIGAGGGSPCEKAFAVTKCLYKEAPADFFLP
In short: as §1

[4] = target: SfurOBP1 (Sogatella furcifera, UniProt V5T8N5); assay: biochemical; format: binding; conditions: for Fluorescence competitive binding assay, fluorescence intensity: OBP1, three replicate columns
Sequence of SfurOBP1 (V5T8N5 entry or part of it): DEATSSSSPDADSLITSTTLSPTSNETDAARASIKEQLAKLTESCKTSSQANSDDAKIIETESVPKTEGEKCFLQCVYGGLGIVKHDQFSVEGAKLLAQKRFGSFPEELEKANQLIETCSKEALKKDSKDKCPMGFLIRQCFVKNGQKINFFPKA
In short: as §1

[5] = target: SfurOBP3 (Sogatella furcifera, UniProt V5T818); assay: biochemical; format: binding; conditions: for Fluorescence competitive binding assay, fluorescence intensity: OBP3, three replicate columns
Sequence of SfurOBP3 (V5T818 entry or part of it): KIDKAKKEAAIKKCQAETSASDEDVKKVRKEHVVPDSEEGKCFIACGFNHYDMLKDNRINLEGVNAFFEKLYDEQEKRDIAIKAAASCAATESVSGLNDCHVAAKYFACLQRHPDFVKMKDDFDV
In short: as §1

## CCCCCC(C)=O [2-heptanone]
[1]
  behavioral response of S. furcifera (in words): strongly attracted
[1]; adults
  number of insects choosing hexane arm: 8
  number of insects choosing volatilies arm: 21
  number of insects failed (no choice): 11
[2]; SfurOBP2, protein and 1-NPN both 2.0 µM, competitor 2-20 µM, read-out: IC50
  IC50: > 20 µM
[2]; ligand concentration 2 (unit not given), replicate column 1 of 3
  Fluorescence competitive binding assay, OBP2 (raw fluorescence reading): 19792
[2]; ligand concentration 2 (unit not given), replicate column 2 of 3
  Fluorescence competitive binding assay, OBP2 (raw fluorescence reading): 17859
[2]; ligand concentration 2 (unit not given), replicate column 3 of 3
  Fluorescence competitive binding assay, OBP2 (raw fluorescence reading): 20079
[2]; ligand concentration 4 (unit not given), replicate column 1 of 3
  Fluorescence competitive binding assay, OBP2 (raw fluorescence reading): 17338
[2]; ligand concentration 4 (unit not given), replicate column 2 of 3
  Fluorescence competitive binding assay, OBP2 (raw fluorescence reading): 18012
[2]; ligand concentration 4 (unit not given), replicate column 3 of 3
  Fluorescence competitive binding assay, OBP2 (raw fluorescence reading): 20388
[2]; ligand concentration 6 (unit not given), replicate column 1 of 3
  Fluorescence competitive binding assay, OBP2 (raw fluorescence reading): 17013
[2]; ligand concentration 6 (unit not given), replicate column 2 of 3
  Fluorescence competitive binding assay, OBP2 (raw fluorescence reading): 18530
[2]; ligand concentration 6 (unit not given), replicate column 3 of 3
  Fluorescence competitive binding assay, OBP2 (raw fluorescence reading): 19352
[2]; ligand concentration 8 (unit not given), replicate column 1 of 3
  Fluorescence competitive binding assay, OBP2 (raw fluorescence reading): 15771
[2]; ligand concentration 8 (unit not given), replicate column 2 of 3
  Fluorescence competitive binding assay, OBP2 (raw fluorescence reading): 11853
[2]; ligand concentration 8 (unit not given), replicate column 3 of 3
  Fluorescence competitive binding assay, OBP2 (raw fluorescence reading): 17932
[2]; ligand concentration 10 (unit not given), replicate column 1 of 3
  Fluorescence competitive binding assay, OBP2 (raw fluorescence reading): 15741
[2]; ligand concentration 10 (unit not given), replicate column 2 of 3
  Fluorescence competitive binding assay, OBP2 (raw fluorescence reading): 17236
[2]; ligand concentration 10 (unit not given), replicate column 3 of 3
  Fluorescence competitive binding assay, OBP2 (raw fluorescence reading): 17972
[2]; ligand concentration 12 (unit not given), replicate column 1 of 3
  Fluorescence competitive binding assay, OBP2 (raw fluorescence reading): 14577
[2]; ligand concentration 12 (unit not given), replicate column 2 of 3
  Fluorescence competitive binding assay, OBP2 (raw fluorescence reading): 14468
[2]; ligand concentration 12 (unit not given), replicate column 3 of 3
  Fluorescence competitive binding assay, OBP2 (raw fluorescence reading): 15583
[2]; ligand concentration 14 (unit not given), replicate column 1 of 3
  Fluorescence competitive binding assay, OBP2 (raw fluorescence reading): 14055
[2]; ligand concentration 14 (unit not given), replicate column 2 of 3
  Fluorescence competitive binding assay, OBP2 (raw fluorescence reading): 13126
[2]; ligand concentration 14 (unit not given), replicate column 3 of 3
  Fluorescence competitive binding assay, OBP2 (raw fluorescence reading): 14409
[2]; ligand concentration 16 (unit not given), replicate column 1 of 3
  Fluorescence competitive binding assay, OBP2 (raw fluorescence reading): 12777
[2]; ligand concentration 16 (unit not given), replicate column 2 of 3
  Fluorescence competitive binding assay, OBP2 (raw fluorescence reading): 13653
[2]; ligand concentration 16 (unit not given), replicate column 3 of 3
  Fluorescence competitive binding assay, OBP2 (raw fluorescence reading): 13817
[2]; ligand concentration 18 (unit not given), replicate column 1 of 3
  Fluorescence competitive binding assay, OBP2 (raw fluorescence reading): 17551
[2]; ligand concentration 18 (unit not given), replicate column 2 of 3
  Fluorescence competitive binding assay, OBP2 (raw fluorescence reading): 16085
[2]; ligand concentration 18 (unit not given), replicate column 3 of 3
  Fluorescence competitive binding assay, OBP2 (raw fluorescence reading): 21813
[2]; ligand concentration 20 (unit not given), replicate column 1 of 3
  Fluorescence competitive binding assay, OBP2 (raw fluorescence reading): 14165
[2]; ligand concentration 20 (unit not given), replicate column 2 of 3
  Fluorescence competitive binding assay, OBP2 (raw fluorescence reading): 14167
[2]; ligand concentration 20 (unit not given), replicate column 3 of 3
  Fluorescence competitive binding assay, OBP2 (raw fluorescence reading): 13571
[3]; SfurOBP11, protein and 1-NPN both 2.0 µM, competitor 2-20 µM, read-out: IC50
  IC50: > 20 µM
[3]; ligand concentration 2, replicate 1
  Fluorescence intensity, fluorescence competitive binding assay, OBP11: 24306
[3]; ligand concentration 2, replicate 2
  Fluorescence intensity, fluorescence competitive binding assay, OBP11: 24787
[3]; ligand concentration 2, replicate 3
  Fluorescence intensity, fluorescence competitive binding assay, OBP11: 25268
[3]; ligand concentration 4, replicate 1
  Fluorescence intensity, fluorescence competitive binding assay, OBP11: 24848
[3]; ligand concentration 4, replicate 2
  Fluorescence intensity, fluorescence competitive binding assay, OBP11: 24623
[3]; ligand concentration 4, replicate 3
  Fluorescence intensity, fluorescence competitive binding assay, OBP11: 25072
[3]; ligand concentration 6, replicate 1
  Fluorescence intensity, fluorescence competitive binding assay, OBP11: 24984
[3]; ligand concentration 6, replicate 2
  Fluorescence intensity, fluorescence competitive binding assay, OBP11: 24187
[3]; ligand concentration 6, replicate 3
  Fluorescence intensity, fluorescence competitive binding assay, OBP11: 25781
[3]; ligand concentration 8, replicate 1
  Fluorescence intensity, fluorescence competitive binding assay, OBP11: 23438
[3]; ligand concentration 8, replicate 2
  Fluorescence intensity, fluorescence competitive binding assay, OBP11: 23156
[3]; ligand concentration 8, replicate 3
  Fluorescence intensity, fluorescence competitive binding assay, OBP11: 23719
[3]; ligand concentration 10, replicate 1
  Fluorescence intensity, fluorescence competitive binding assay, OBP11: 22448
[3]; ligand concentration 10, replicate 2
  Fluorescence intensity, fluorescence competitive binding assay, OBP11: 22213
[3]; ligand concentration 10, replicate 3
  Fluorescence intensity, fluorescence competitive binding assay, OBP11: 22684
[3]; ligand concentration 12, replicate 1
  Fluorescence intensity, fluorescence competitive binding assay, OBP11: 22134
[3]; ligand concentration 12, replicate 2
  Fluorescence intensity, fluorescence competitive binding assay, OBP11: 22969
[3]; ligand concentration 12, replicate 3
  Fluorescence intensity, fluorescence competitive binding assay, OBP11: 22151
[3]; ligand concentration 14, replicate 1
  Fluorescence intensity, fluorescence competitive binding assay, OBP11: 21048
[3]; ligand concentration 14, replicate 2
  Fluorescence intensity, fluorescence competitive binding assay, OBP11: 20368
[3]; ligand concentration 14, replicate 3
  Fluorescence intensity, fluorescence competitive binding assay, OBP11: 20708
[3]; ligand concentration 16, replicate 1
  Fluorescence intensity, fluorescence competitive binding assay, OBP11: 19801
[3]; ligand concentration 16, replicate 2
  Fluorescence intensity, fluorescence competitive binding assay, OBP11: 20307
[3]; ligand concentration 16, replicate 3
  Fluorescence intensity, fluorescence competitive binding assay, OBP11: 20932
[3]; ligand concentration 18, replicate 1
  Fluorescence intensity, fluorescence competitive binding assay, OBP11: 20181
[3]; ligand concentration 18, replicate 2
  Fluorescence intensity, fluorescence competitive binding assay, OBP11: 20256
[3]; ligand concentration 18, replicate 3
  Fluorescence intensity, fluorescence competitive binding assay, OBP11: 20300
[3]; ligand concentration 20, replicate 1
  Fluorescence intensity, fluorescence competitive binding assay, OBP11: 20105
[3]; ligand concentration 20, replicate 2
  Fluorescence intensity, fluorescence competitive binding assay, OBP11: 20028
[3]; ligand concentration 20, replicate 3
  Fluorescence intensity, fluorescence competitive binding assay, OBP11: 20212
[4]; ligand concentration 2 (μM)
  Fluorescence competitive binding assay, fluorescence intensity: 5565 and 5797 and 5680
[4]; ligand concentration 4 (μM)
  Fluorescence competitive binding assay, fluorescence intensity: 6133 and 7369 and 7766
[4]; ligand concentration 6 (μM)
  Fluorescence competitive binding assay, fluorescence intensity: 7319 and 6450 and 6758
[4]; ligand concentration 8 (μM)
  Fluorescence competitive binding assay, fluorescence intensity: 6247 and 6677 and 6608
[4]; ligand concentration 10 (μM)
  Fluorescence competitive binding assay, fluorescence intensity: 5974 and 6580 and 6200
[4]; ligand concentration 12 (μM)
  Fluorescence competitive binding assay, fluorescence intensity: 6115 and 6844 and 6487
[4]; ligand concentration 14 (μM)
  Fluorescence competitive binding assay, fluorescence intensity: 7227 and 6939 and 7296
[4]; ligand concentration 16 (μM)
  Fluorescence competitive binding assay, fluorescence intensity: 7221 and 7791 and 6651
[4]; ligand concentration 18 (μM)
  Fluorescence competitive binding assay, fluorescence intensity: 6902 and 6623 and 6730
[4]; ligand concentration 20 (μM)
  Fluorescence competitive binding assay, fluorescence intensity: 6454 and 6429 and 6479
[4]; SfurOBP1, protein and 1-NPN both 2.0 µM, competitor 2-20 µM, read-out: IC50
  IC50: > 20 µM
[5]; ligand concentration 2
  Fluorescence competitive binding assay, fluorescence intensity: 37101 and 37506 and 37304
[5]; ligand concentration 4
  Fluorescence competitive binding assay, fluorescence intensity: 36141 and 37871 and 37816
[5]; ligand concentration 6
  Fluorescence competitive binding assay, fluorescence intensity: 36419 and 39158 and 37789
[5]; ligand concentration 8
  Fluorescence competitive binding assay, fluorescence intensity: 33665 and 34797 and 35932
[5]; ligand concentration 10
  Fluorescence competitive binding assay, fluorescence intensity: 33290 and 35900 and 35256
[5]; ligand concentration 12
  Fluorescence competitive binding assay, fluorescence intensity: 29962 and 33001 and 33859
[5]; ligand concentration 14
  Fluorescence competitive binding assay, fluorescence intensity: 28260 and 30707 and 32190
[5]; ligand concentration 16
  Fluorescence competitive binding assay, fluorescence intensity: 28891 and 29426 and 29159
[5]; ligand concentration 18
  Fluorescence competitive binding assay, fluorescence intensity: 26989 and 27471 and 26506
[5]; ligand concentration 20
  Fluorescence competitive binding assay, fluorescence intensity: 26994 and 26547 and 27440
[5]; SfurOBP3
  binding affinity to SfurOBP3 (in words): high binding affinities
[5]; SfurOBP3, protein and 1-NPN both 2.0 µM, competitor 2-20 µM, read-out: IC50
  IC50: 15.5 µM
